Legend:
[1] = biological target: T1, mouse Siglec-2-Fc-Avi (CD22) (Mus musculus, UniProt P35329); experiment: SPR binding affinity to mouse CD22; details: steady-state analysis
T1 construct: made in house
T1 sequence (P35329 22-708 limits assumed): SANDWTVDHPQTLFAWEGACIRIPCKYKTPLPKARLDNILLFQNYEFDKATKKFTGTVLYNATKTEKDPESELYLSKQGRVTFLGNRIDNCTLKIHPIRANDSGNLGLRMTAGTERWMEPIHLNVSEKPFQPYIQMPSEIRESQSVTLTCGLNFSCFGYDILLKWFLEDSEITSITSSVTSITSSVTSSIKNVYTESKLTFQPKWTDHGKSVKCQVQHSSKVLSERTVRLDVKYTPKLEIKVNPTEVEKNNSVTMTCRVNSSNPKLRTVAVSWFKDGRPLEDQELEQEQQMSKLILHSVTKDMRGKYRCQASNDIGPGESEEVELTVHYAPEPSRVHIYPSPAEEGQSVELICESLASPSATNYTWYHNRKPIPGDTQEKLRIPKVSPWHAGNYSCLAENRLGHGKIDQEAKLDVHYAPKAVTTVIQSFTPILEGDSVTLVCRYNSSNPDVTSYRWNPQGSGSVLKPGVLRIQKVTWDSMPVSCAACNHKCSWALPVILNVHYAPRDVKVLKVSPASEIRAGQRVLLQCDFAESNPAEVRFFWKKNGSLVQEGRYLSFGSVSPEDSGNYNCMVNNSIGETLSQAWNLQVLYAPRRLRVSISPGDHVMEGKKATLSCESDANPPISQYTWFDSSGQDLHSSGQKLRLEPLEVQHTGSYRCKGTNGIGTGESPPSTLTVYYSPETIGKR
In short: (§1)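 Using a Biacore 8K, compounds were tested against biotinylated CD22 captured after sialidase treatment. The running buffer held 1% DMSO, corrected with a 0.5–2% DMSO series. Affinity was derived by steady-state analysis.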

[2] = biological target: T2, human Siglec-2/CD22 protein (Homo sapiens, UniProt P20273); experiment: SPR binding affinity to human CD22; details: steady-state analysis
T2 construct: purchased Acro Biosystems SI2-H82E3
T2 sequence (P20273 20-847): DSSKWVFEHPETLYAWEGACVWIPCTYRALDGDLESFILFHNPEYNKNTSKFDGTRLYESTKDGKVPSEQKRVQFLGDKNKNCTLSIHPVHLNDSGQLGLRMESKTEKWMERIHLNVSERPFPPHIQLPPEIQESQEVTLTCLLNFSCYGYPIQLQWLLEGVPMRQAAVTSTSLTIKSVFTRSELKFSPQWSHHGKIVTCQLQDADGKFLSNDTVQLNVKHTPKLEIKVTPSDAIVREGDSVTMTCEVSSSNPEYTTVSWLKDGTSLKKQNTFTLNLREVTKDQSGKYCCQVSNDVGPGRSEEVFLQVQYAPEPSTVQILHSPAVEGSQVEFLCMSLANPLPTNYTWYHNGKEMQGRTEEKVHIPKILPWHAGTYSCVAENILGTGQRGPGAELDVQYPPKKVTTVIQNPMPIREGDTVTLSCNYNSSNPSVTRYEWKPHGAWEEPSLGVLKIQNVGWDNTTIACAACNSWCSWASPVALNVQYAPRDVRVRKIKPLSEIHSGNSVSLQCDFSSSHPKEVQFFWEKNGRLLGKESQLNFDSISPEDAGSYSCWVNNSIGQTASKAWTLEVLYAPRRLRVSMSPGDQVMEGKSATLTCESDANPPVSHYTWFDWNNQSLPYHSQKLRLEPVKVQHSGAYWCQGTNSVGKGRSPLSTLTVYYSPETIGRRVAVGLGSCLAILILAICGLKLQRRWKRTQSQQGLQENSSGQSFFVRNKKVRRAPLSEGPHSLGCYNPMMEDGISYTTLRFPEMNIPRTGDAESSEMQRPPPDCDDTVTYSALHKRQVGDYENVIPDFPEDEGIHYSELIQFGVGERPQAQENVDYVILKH
In short: as §1

[3] = biological target: cynomolgus Siglec-2/CD22 (Macaca fascicularis, UniProt A0A2K5WCZ6); experiment: biochemical; type: binding; details: SPR, steady-state analysis; read-out: Affinity cyno CD22
Sequence of cynomolgus Siglec-2/CD22 (A0A2K5WCZ6 entry or part of it): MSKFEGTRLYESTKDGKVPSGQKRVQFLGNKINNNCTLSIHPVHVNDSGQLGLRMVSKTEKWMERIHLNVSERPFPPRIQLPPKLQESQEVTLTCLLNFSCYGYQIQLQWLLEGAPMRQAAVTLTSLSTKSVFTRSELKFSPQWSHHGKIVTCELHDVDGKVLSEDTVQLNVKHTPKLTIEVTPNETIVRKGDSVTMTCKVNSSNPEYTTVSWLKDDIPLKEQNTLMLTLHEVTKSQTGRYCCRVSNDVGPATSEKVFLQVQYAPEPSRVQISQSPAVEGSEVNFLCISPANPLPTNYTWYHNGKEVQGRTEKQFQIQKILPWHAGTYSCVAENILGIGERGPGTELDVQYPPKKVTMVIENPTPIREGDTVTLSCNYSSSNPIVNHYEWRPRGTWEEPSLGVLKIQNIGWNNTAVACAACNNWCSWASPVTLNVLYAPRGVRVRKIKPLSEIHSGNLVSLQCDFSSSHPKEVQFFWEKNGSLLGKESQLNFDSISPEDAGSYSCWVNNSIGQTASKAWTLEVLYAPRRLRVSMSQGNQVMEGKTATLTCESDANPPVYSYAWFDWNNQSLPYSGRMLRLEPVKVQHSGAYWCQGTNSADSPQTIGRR
In short: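 SPR with desialylated (SialoExo, 4 h, 37° C.) cynomolgus CD22 amine-coupled to a CM5 chip. Running buffer 10 mM HEPES, 150 mM NaCl, 0.05% Tween-20, pH 7.5, 1% DMSO, with solvent correction; 120 s dissociation. Affinities from steady-state analysis.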

Kd [1] [nM] | Kd [2] [nM] | Kd [3] [nM] | SMILES
1000 to 10000 | 1000 to 10000 | 1000 to 10000 | CC(=O)NCCOCCOCCOCCOCCC(=O)NCCOCCOCCO[C@]1(C(=O)O)C[C@H](O)[C@@H](NC(=O)CO)[C@H]([C@H](O)[C@H](O)CNC(=O)Cc2ccc(Cl)cc2)O1 [Compound 237, (2R,4S,5R,6R)-6-((1R,2R)-3-(2-(4-chlorophenyl)acetamido)-1,2-dihydroxypropyl)-2-((2,18-dioxo-6,9,12,15,22,25-hexaoxa-3,19-diazaheptacosan-27-yl)oxy)-4-hydroxy-5-(2-hydroxyacetamido) tetrahydro-2H-pyran-2-carboxylic acid]
< 1000 | < 1000 | < 1000 | CC(=O)NCCOCCOCCOCCOCCC(=O)NCCCCCCO[C@]1(C(=O)O)C[C@H](O)[C@@H](NC(=O)CO)[C@H]([C@H](O)[C@H](O)CNC(=O)Cc2ccc(-c3ccccc3)cc2)O1 [Compound 219, (2R,4S,5R,6R)-6-((1R,2R)-3-(2-([1,1′-biphenyl]-4-yl)acetamido)-1,2-dihydroxypropyl)-2-((2,18-dioxo-6,9,12,15-tetraoxa-3,19-diazapentacosan-25-yl)oxy)-4-hydroxy-5-(2-hydroxyacetamido)tetrahydro-2H-pyran-2-carboxylic acid]
1000 to 10000 | 1000 to 10000 | < 1000 | C#CCOCCCCCCO[C@]1(C(=O)O)C[C@H](O)[C@@H](NC(=O)C(=O)NC)[C@H]([C@H](O)[C@H](O)CNC(=O)Cc2ccc(Cl)cc2)O1 [Compound 189, (2R,4S,5R,6R)-6-((1R,2R)-3-(2-(4-chlorophenyl)acetamido)-1,2-dihydroxypropyl)-4-hydroxy-5-(2-(methylamino)-2-oxoacetamido)-2-((6-(prop-2-yn-1-yloxy)hexyl)oxy)tetrahydro-2H-pyran-2-carboxylic acid]
< 1000 | < 1000 | < 1000 | C#CCOCCCCCCO[C@]1(C(=O)O)C[C@H](O)[C@@H](NC(=O)CO)[C@H]([C@H](O)[C@H](O)CNC(=O)Cc2ccc(-c3ccc4[nH]cc(C)c4c3)cc2)O1 [Compound 1, (2R,4S,5R,6R)-6-((1R,2R)-1,2-dihydroxy-3-(2-(4-(3-methyl-1H-indol-5-yl)phenyl)acetamido)propyl)-4-hydroxy-5-(2-hydroxyacetamido)-2-((6-(prop-2-yn-1-yloxy)hexyl)oxy)tetrahydro-2H-pyran-2-carboxylic acid]
< 1000 | < 1000 | < 1000 | C#CCNC(=O)c1ccc(CS[C@]2(C(=O)O)C[C@H](O)[C@@H](NC(=O)CO)[C@H]([C@H](O)[C@H](O)CNC(=O)Cc3ccc(Cl)cc3)O2)cc1 [Compound 187, (2S,4S,5R,6R)-6-((1R,2R)-3-(2-(4-chlorophenyl)acetamido)-1,2-dihydroxypropyl)-4-hydroxy-5-(2-hydroxyacetamido)-2-((4-(prop-2-yn-1-ylcarbamoyl)benzyl)thio)tetrahydro-2H-pyran-2-carboxylic acid]
< 1000 | < 1000 | < 1000 | C#CCOCCNC(=O)CCCCCCO[C@]1(C(=O)O)C[C@H](O)[C@@H](NC(=O)CO)[C@H]([C@H](O)[C@H](O)CNC(=O)Cc2ccc(C(F)F)cc2)O1 [Compound 213, (2R,4S,5R,6R)-6-((1R,2R)-3-(2-(4-(difluoromethyl)phenyl)acetamido)-1,2-dihydroxypropyl)-4-hydroxy-5-(2-hydroxyacetamido)-2-((7-oxo-7-((2-(prop-2-yn-1-yloxy)ethyl)amino)heptyl)oxy)tetrahydro-2H-pyran-2-carboxylic acid]
> 10000 | 1000 to 10000 | > 10000 | C#CCOCCOCCO[C@]1(C(=O)O)C[C@H](O)[C@@H](NC(=O)CO)[C@H]([C@H](O)[C@H](O)CNC(=O)Cc2ccc(-c3ccccc3)nc2)O1 [Compound 79, (2R,4S,5R,6R)-6-((1R,2R)-1,2-dihydroxy-3-(2-(6-phenylpyridin-3-yl)acetamido)propyl)-4-hydroxy-5-(2-hydroxyacetamido)-2-(2-(2-(prop-2-yn-1-yloxy)ethoxy)ethoxy)tetrahydro-2H-pyran-2-carboxylic acid]
< 1000 | < 1000 | < 1000 | C#CCNc1c(NCCCCCCO[C@]2(C(=O)O)C[C@H](O)[C@@H](NC(N)=O)[C@H]([C@H](O)[C@H](O)CNC(=O)Cc3ccc(-c4ccccc4)cc3)O2)c(=O)c1=O [Compound 224, (2R,4S,5R,6R)-6-((1R,2R)-3-(2-([1,1′-biphenyl]-4-yl)acetamido)-1,2-dihydroxypropyl)-2-((6-((3,4-dioxo-2-(prop-2-yn-1-ylamino)cyclobut-1-en-1-yl)amino)hexyl)oxy)-4-hydroxy-5-ureidotetrahydro-2H-pyran-2-carboxylic acid]
> 10000 | > 10000 | > 10000 | C#CCOCCOCCO[C@]1(C(=O)O)C[C@H](O)[C@@H](NC(=O)NCC(F)(F)F)[C@H]([C@H](O)[C@H](O)CNC(=O)Cc2ccc(-c3ccc(O)cc3)cc2)O1 [Compound 199, (2R,4S,5R,6R)-6-((1R,2R)-1,2-dihydroxy-3-(2-(4′-hydroxy-[1,1′-biphenyl]-4-yl)acetamido)propyl)-4-hydroxy-2-(2-(2-(prop-2-yn-1-yloxy)ethoxy)ethoxy)-5-(3-(2,2,2-trifluoroethyl)ureido)tetrahydro-2H-pyran-2-carboxylic acid]
1000 to 10000 | < 1000 | < 1000 | C#CCOCCCCCCO[C@]1(C(=O)O)C[C@H](O)[C@@H](NC(=O)CO)[C@H]([C@H](O)[C@H](O)CNC(=O)Cc2ccc(C(C)(C)C)cc2)O1 [Compound 160, (2R,4S,5R,6R)-6-((1R,2R)-3-(2-(4-(tert-butyl)phenyl)acetamido)-1,2-dihydroxypropyl)-4-hydroxy-5-(2-hydroxyacetamido)-2-((6-(prop-2-yn-1-yloxy)hexyl)oxy)tetrahydro-2H-pyran-2-carboxylic acid]
> 10000 | 1000 to 10000 | 1000 to 10000 | C#CCOCCOCCO[C@]1(C(=O)O)C[C@H](O)[C@@H](NC(=O)CNC(C)=O)[C@H]([C@H](O)[C@H](O)CNC(=O)Cc2ccc(-c3ccc(O)cc3)cc2)O1 [Compound 57, (2R,4S,5R,6R)-5-(2-acetamidoacetamido)-6-((1R,2R)-1,2-dihydroxy-3-(2-(4′-hydroxy-[1,1′-biphenyl]-4-yl)acetamido)propyl)-4-hydroxy-2-(2-(2-(prop-2-yn-1-yloxy)ethoxy)ethoxy)tetrahydro-2H-pyran-2-carboxylic acid]
> 10000 | 1000 to 10000 | 1000 to 10000 | C#CCOCCCCCCO[C@]1(C(=O)O)C[C@H](O)[C@@H](NC(=O)COC)[C@H]([C@H](O)[C@H](O)CNC(=O)Cc2ccc(Cl)cc2)O1 [Compound 192, (2R,4S,5R,6R)-6-((1R,2R)-3-(2-(4-chlorophenyl)acetamido)-1,2-dihydroxypropyl)-4-hydroxy-5-(2-methoxyacetamido)-2-((6-(prop-2-yn-1-yloxy)hexyl)oxy)tetrahydro-2H-pyran-2-carboxylic acid]
